This note sets out measurements from ChEMBL document CHEMBL3856238, “Synthesis of novel nicotinohydrazide and (1,3,4-oxadiazol-2-yl)-6-(trifluoromethyl)pyridine derivatives as potential anticancer agents” (Bioorg Med Chem Lett, 2016).

Common to all, as to type: functional, cell-based
A short description of experiment [1]: Cytotoxicity against human DU145 cells assessed as cell growth inhibition by MTT assay. To be noted: DU-145. (Tetrazolium dyes change colour on reduction, which living cells bring about.)
A short description of experiment [2]: Cytotoxicity against human MDA-MB-231 cells assessed as cell growth inhibition by MTT assay.
Experiment [3] in a line: Cytotoxicity against human HeLa cells assessed as cell growth inhibition by MTT assay.
A short description of experiment [4]: Cytotoxicity against human HepG2 cells assessed as cell growth inhibition by MTT assay.

Structures are written as SMILES.

Consider `O=C(N/N=C/c1ccccc1)c1ccc(C(F)(F)F)nc1NCc1ccco1`, for which the IC50 (commonly the concentration that gives 50% inhibition) worked out at 30.5 µM in experiment [1], 26.6 µM in experiment [2], 31.4 µM in experiment [3] and 32.2 µM in experiment [4].

Consider `CCCc1nnc(-c2ccc(C(F)(F)F)nc2Nc2cccc(F)c2)o1`, for which the IC50 in experiment [1] was 18.9 µM; in experiment [2] it was 13.5 µM; in experiment [3], 19.6 µM; in experiment [4], 17.7 µM.

For `CCc1nnc(-c2ccc(C(F)(F)F)nc2Nc2cccc(F)c2)o1`, the IC50 in experiment [1] turned out to be 22.2 µM; in experiment [2] it was 18.7 µM; in experiment [3], 20.9 µM; in experiment [4], 26.4 µM.

As for `COc1ccc(-c2nnc(-c3ccc(C(F)(F)F)nc3N)o2)cc1`, the IC50 in experiment [1] was determined as 10.7 µM; in experiment [2], 13.5 µM; in experiment [3], 14.8 µM; in experiment [4] it was 11.2 µM.

On to `CCc1nnc(-c2ccc(C(F)(F)F)nc2Nc2cc(OC)c(OC)c(OC)c2)o1`, for which the IC50 in experiment [1] came to 22.1 µM; in experiment [2], 20.5 µM; in experiment [3], 23.3 µM; in experiment [4], 19.9 µM.

On to `O=c1[nH]cc(F)c(=O)[nH]1` [FLUOROURACIL], for which the IC50 in experiment [1] was 1.6 µM; in experiment [2], 1.8 µM; in experiment [3] it was 1.9 µM; in experiment [4], 1.3 µM.

Consider `FC(F)(F)c1ccc(-c2nnc(-c3ccco3)o2)c(NCc2ccco2)n1`, for which the half-maximal inhibitory concentration (IC50) in experiment [1] was determined as 8.2 µM; in experiment [2], 8.7 µM; in experiment [3], 9.8 µM; in experiment [4], 9.5 µM.
